Results: US20250255981A1, “IMMUNOMODULATORY ANTIBODY-DRUG CONJUGATES” (Seagen Inc., priority 2022, published 2025)

Columns and labels:
[1] = tested on: THP1-Dual™ cells (IRF-Lucia luciferase reporter); test: THP1-Dual™ cell reporter assay; type: cell-based, human; details: for relative potency of free drug, Lucia reporter: 24 h (48 h elsewhere in the source)
Procedure: Potency of compounds and ADCs was evaluated using the THP1-Dual™ cells (Invivogen PN: thpd-nfis [also referred to as THP1 dual reporter cells]), which contain an IRF-Lucia luciferase reporter. Cells were cultured in RPMI-1640 (Gibco) with 10% heat-inactivated fetal bovine serum, Pen-Strep (100 U/mL-100 […], Gibco), HEPES (10 mM, Gibco)), sodium pyruvate (1 mM, Gibco), MEM non-essential amino acids (1×, Gibco), GlutaMAX (1×, Gibco), and beta-mercaptoethanol (55 μM, Gibco). Cells were plated in a 96-well flat bottom tissue culture-treated clear polystyrene plate (Corning Costar #3596) at ˜100,000 cells per well in 200 μL with the indicated concentration of the compound or ADC. The supernatant was harvested at 24 hours (compounds) or 48 hours (ADC) post plating for the reporter assay, or as indicated. To measure Lucia reporter signal, 10 µL of the supernatant was combined with 40 µL of QUANTI-Luc™ Luminescence assay reagent (Invivogen PN: rep-qlc1) in a 96-well clear flat bottom tissue culture-treated black polystyrene plate (Corning Costar #3603) and read on a Perkin Elmer Envision plate reader.

[2] = tested on: wild type (WT) murine bone marrow-derived macrophages; test: Bone marrow-derived macrophage assay, wild type; type: cell-based, mouse; details: 24 hours
Procedure: Potency of the compounds described herein was evaluated using mouse bone-marrow derived macrophages cultured from wild type (C57BL/6J, the Jackson Laboratory #000664) or STING-deficient (C57BL/6J-Sting1^gt/J, the Jackson Laboratory #017537) mice. Briefly, mouse bone marrow cells were cultured for 7-10 days in RPMI-1640 (Gibco) with 10% heat-inactivated fetal bovine serum, Pen-Strep (100 U/mL-100 […], Gibco), HEPES (10 mM, Gibco), sodium pyruvate (1 mM, Gibco), GlutaMAX (1×, Gibco), beta-mercaptoethanol ([…], Gibco) and 20-40 ng/mL murine M-CSF (Peprotech, #315-02). Cells were plated in a 96-well flat bottom tissue culture-treated clear polystyrene plate (Corning Costar #3596) at ˜100,000 cells per well in 200 μL with the indicated concentration of the compound. The supernatant was harvested at 24 hours and cytokines were measured using a Milliplex MAP mouse cytokine/chemokine magnetic bead panel assay kit (MCYTOMAG-70k custom 11-plex kit: MCP1, MIP1α, MIP1β, TNFα, IFNγ, IL-10, IL-12p70, IL-1β, IL-6, IP10, RANTES) and analyzed using a Luminex™ MAGPIX™ Instrument System.

[3] = tested on: Renca tumor-bearing mice; test: In vivo cytokine assay, Renca tumor-bearing mice; set-up: species or system mouse; details: for systemic pro-inflammatory cytokine (IL-6 and TNF) production: plasma; for IFNγ in plasma / IL1β in plasma / IL12p70 in plasma / IL-6 in plasma / IL-10 in plasma / IP10 in plasma / MCP-1 in plasma / MIP1α in plasma / MIP1β in plasma: 1.86 mg/kg
Procedure: Cytokines were measured in mouse plasma harvested at 3, 6, 24, or 48 hours after treatment with compounds or ADCs using a Milliplex MAP mouse cytokine/chemokine magnetic bead panel assay kit (MCYTOMAG-70k custom 11-plex kit: MCP1, MIP1a, MIP1(3, TNFα, IFNγ, IL-10, IL-12p70, IL-6, IL-1β, IP10, RANTES) and analyzed using a Luminex™ MAGPIX™ Instrument System. Values that were outside of the standard curve range (<3.2 or […]) were either excluded from calculation of the mean values or, when indicated, converted to […] for calculation of the mean values.
Renca cancer cells (ATCC) were cultured in RPMI-1640 (ATCC) with 10% heat-inactivated fetal bovine serum, Pen-Strep (100 U/mL-100 μg/mL), MEM non-essential amino acids (1×), sodium pyruvate (1 mM), and L-glutamine (2 mM). Renca cancer cells were implanted (2*10^6 cells in 200 μL 25% Matrigel) subcutaneously into Balb/c female mice. In some experiments, Renca tumor cells were engineered to express the indicated murine or human target antigen.
(§1) When tumor volumes reached 100 mm^3, the mice were dosed with either compounds or ADCs by intraperitoneal or intravenous injection at the indicated dosing schedule and tumor volumes were monitored twice weekly. Compounds were formulated in 40% PEG400 in saline.
(§2) A syngeneic system was used to assess the ability of the STING agonist ADCs to induce immune responses in vivo and drive an anti-tumor immune response. The Renca system is a subcutaneous, mouse renal adenocarcinoma model. Female Balb/c mice were implanted with 2×10^6 Renca cells subcutaneously in the flank on day 0. When mean tumor size of 100 mm^3 (measured by using the formula Volume (mm^3)=0.5*Length*Width^2 where length is the longer dimension) was reached mice were randomized into treatment groups of ≥5 mice per group. Animals were then treated intraperitoneally (ADCs or compounds) or intravenously (compounds) with the indicated treatment every 7 days, for 3 doses total (or as indicated). Tumor length and width and the weight of the animals was measured throughout the study and tumor volume was calculated using the formula above. Animals were followed until the tumor volume reached ˜1000 mm^3; animals were then euthanized.

[4] = tested on: Renca cancer cells; test: In vivo anti-tumor activity, Renca tumor model
Procedure: In some experiments, Renca tumor cells were engineered to express the indicated murine or human target antigen.
as §1, §2

[5] = tested on: human CD228-LL2 tumor-bearing mice; test: In vivo cytokine assay, human CD228-LL2 tumor-bearing mice; set-up: species or system mouse
Procedure: Cytokines were measured in mouse plasma harvested at 3, 6, 24, or 48 hours after treatment with compounds or ADCs using a Milliplex MAP mouse cytokine/chemokine magnetic bead panel assay kit (MCYTOMAG-70k custom 11-plex kit: MCP1, MIP1a, MIP1(3, TNFα, IFNγ, IL-10, IL-12p70, IL-6, IL-1β, IP10, RANTES) and analyzed using a Luminex™ MAGPIX™ Instrument System. Values that were outside of the standard curve range (<3.2 or >10,000 μg/mL) were either excluded from calculation of the mean values or, when indicated, converted to 3.2 or 10,000 μg/mL for calculation of the mean values.
LL2 cancer cells were engineered using lentiviral transduction to express human CD228. LL2 cells were cultured in DMEM (ATCC) with 10% heat-inactivated fetal bovine serum. Female C57BL/6 mice were implanted with 1×10^6 hCD228-LL2 tumor cells in 100 μL 25% Matrigel in RPMI 1640 medium subcutaneously. Once tumor volumes reached 100 mm^3, mice were randomized into treatment groups and dosed as indicated. […] Stock concentrations of mAb or conjugates were diluted to a desired concentration (with 20 mM His, 6% Trehalose or 0.01% Tween20 in PBS) and injected intraperitoneally (i.p.) or intravenously (i.v.) as indicated. The small molecule was formulated in 40% PEG400 in saline and injected i.v.

[6] = dose 1, 6 h, 0.08 mg/kg Q7Dx3 i.v.
[7] = dose 1, 6 h, 1.5 mg/kg Q7Dx3 i.v.
[8] = dose 2, 6 h, 0.08 mg/kg Q7Dx3 i.v.
[9] = dose 2, 6 h, 1.5 mg/kg Q7Dx3 i.v.
[10] = dose 3, 6 h, 0.08 mg/kg Q7Dx3 i.v.
[11] = dose 3, 6 h, 1.5 mg/kg Q7Dx3 i.v.

## CCn1nc(C)cc1C(=O)Nc1nc2cc(C(N)=O)cc(OC)c2n1C/C=C/Cn1c(NC(=O)c2cc(C)nn2CC)nc2cc(C(N)=O)cc(OCCCNC)c21 [Compound 12a]
[1]
  relative potency of free drug, Lucia reporter: less potent than compound 1 and compound A
[2]
  cytokine production: induced cytokine production
[3]
  systemic pro-inflammatory cytokine (IL-6 and TNF) production: induced robust production of IL-6 and TNF
[4]; Renca, q7dx3
  tumor growth / anti-tumor activity: limited anti-tumor efficacy

## CCn1nc(C)cc1C(=O)Nc1nc2cc(C(N)=O)cc(OC)c2n1C/C=C/Cn1c(NC(=O)c2cc(C)nn2CC)nc2cc(C(N)=O)cc(OCCCN3CCOCC3)c21.O=C(O)C(F)(F)F.O=C(O)C(F)(F)F.O=C(O)C(F)(F)F [Compound A, (E)-1-(4-(5-carbamoyl-2-(1-ethyl-3-methyl-1H-pyrazole-5-carboxamido)-7-(3-morpholinopropoxy)-1H-benzo[d]imidazol-1-yl)but-2-en-1-yl)-2-(1-ethyl-3-methyl-1H-pyrazole-5-carboxamido)-7-methoxy-1H-benzo[d]imidazole-5-carboxamide tris(2,2,2-trifluoroacetate)]
[1]
  relative potency of free drug, Lucia reporter: significantly more potent than (2′, 3′)-Rp,Rpc-diAMPS disodium (Compound B)
[3]; 3 h after treatment
  IFNγ in plasma: 0.3 pg/mL
  IL1β in plasma: 1.5 pg/mL
  IL12p70 in plasma: 0.2 pg/mL
  IL-6 in plasma: 3550 pg/mL
  IL-10 in plasma: 0.5 pg/mL
  IP10 in plasma: 4780 pg/mL
  MCP-1 in plasma: 14500 pg/mL
  MIP1α in plasma: 1300 pg/mL
  MIP1β in plasma: 6370 pg/mL
[3]; 6 h after treatment
  IFNγ in plasma: 71.8 pg/mL
  IL1β in plasma: 0.6 pg/mL
  IL12p70 in plasma: 0.2 pg/mL
  IL-6 in plasma: 732 pg/mL
  IL-10 in plasma: < 3.2 pg/mL
  IP10 in plasma: 4980 pg/mL
  MCP-1 in plasma: 10800 pg/mL
  MIP1α in plasma: 209 pg/mL
  MIP1β in plasma: 2150 pg/mL
[3]; 24 h after treatment
  IFNγ in plasma: < 3.2 pg/mL
  IL1β in plasma: 0.3 pg/mL
  IL12p70 in plasma: < 3.2 pg/mL
  IL-6 in plasma: 16.4 pg/mL
  IL-10 in plasma: < 3.2 pg/mL
  IP10 in plasma: 890 pg/mL
  MCP-1 in plasma: 540 pg/mL
  MIP1α in plasma: 41.7 pg/mL
  MIP1β in plasma: 35.5 pg/mL
[3]
  systemic pro-inflammatory cytokine (IL-6 and TNF) production: induced robust production of IL-6 and TNF
[5]; [6]
  IFNg, peripheral blood (plasma), mean: 9.8 pg/mL
  IL1b, peripheral blood (plasma), mean: 12.1 pg/mL
  IL-6, peripheral blood (plasma), mean: 346.7 pg/mL
  IL-10, peripheral blood (plasma), mean: 15.8 pg/mL
  IL-12p70, peripheral blood (plasma), mean: 3.0 pg/mL
  IP10, peripheral blood (plasma), mean: 7501.0 pg/mL
  MCP-1, peripheral blood (plasma), mean: 3780.5 pg/mL
  MIP1a, peripheral blood (plasma), mean: 107.1 pg/mL
  MIP1b, peripheral blood (plasma), mean: 474.6 pg/mL
  RANTES, peripheral blood (plasma), mean: 33.9 pg/mL
  TNFa, peripheral blood (plasma), mean: 11.0 pg/mL
[5]; [7]
  IFNg, peripheral blood (plasma), mean: 392.4 pg/mL
  IL1b, peripheral blood (plasma), mean: 38.0 pg/mL
  IL-6, peripheral blood (plasma), mean: 10532.0 pg/mL
  IL-10, peripheral blood (plasma), mean: 71.5 pg/mL
  IL-12p70, peripheral blood (plasma), mean: 32.3 pg/mL
  IP10, peripheral blood (plasma), mean: >10000 pg/mL
  MCP-1, peripheral blood (plasma), mean: 10000.0 pg/mL
  MIP1a, peripheral blood (plasma), mean: 574.2 pg/mL
  MIP1b, peripheral blood (plasma), mean: 4253.1 pg/mL
  RANTES, peripheral blood (plasma), mean: 1705.3 pg/mL
  TNFa, peripheral blood (plasma), mean: 95.7 pg/mL
[5]; [8]
  IFNg, peripheral blood (plasma), mean: 11.7 pg/mL
  IL1b, peripheral blood (plasma), mean: 26.2 pg/mL
  IL-6, peripheral blood (plasma), mean: 936.6 pg/mL
  IL-10, peripheral blood (plasma), mean: 9.5 pg/mL
  IL-12p70, peripheral blood (plasma), mean: 9.7 pg/mL
  IP10, peripheral blood (plasma), mean: 9045.3 pg/mL
  MCP-1, peripheral blood (plasma), mean: 7114.6 pg/mL
  MIP1a, peripheral blood (plasma), mean: 206.0 pg/mL
  MIP1b, peripheral blood (plasma), mean: 1550.3 pg/mL
  RANTES, peripheral blood (plasma), mean: 236.6 pg/mL
  TNFa, peripheral blood (plasma), mean: 18.4 pg/mL
[5]; [9]
  IFNg, peripheral blood (plasma), mean: 1550.6 pg/mL
  IL1b, peripheral blood (plasma), mean: 57.4 pg/mL
  IL-6, peripheral blood (plasma), mean: 22725.1 pg/mL
  IL-10, peripheral blood (plasma), mean: 92.3 pg/mL
  IL-12p70, peripheral blood (plasma), mean: 75.4 pg/mL
  IP10, peripheral blood (plasma), mean: >10000 pg/mL
  MCP-1, peripheral blood (plasma), mean: >10000 pg/mL
  MIP1a, peripheral blood (plasma), mean: 846.6 pg/mL
  MIP1b, peripheral blood (plasma), mean: 5235.4 pg/mL
  RANTES, peripheral blood (plasma), mean: 1906.1 pg/mL
  TNFa, peripheral blood (plasma), mean: 204.0 pg/mL
[5]; [10]
  IFNg, peripheral blood (plasma), mean: 21.9 pg/mL
  IL1b, peripheral blood (plasma), mean: 66.6 pg/mL
  IL-6, peripheral blood (plasma), mean: 1494.7 pg/mL
  IL-10, peripheral blood (plasma), mean: 36.3 pg/mL
  IL-12p70, peripheral blood (plasma), mean: 220.3 pg/mL
  IP10, peripheral blood (plasma), mean: 7718.5 pg/mL
  MCP-1, peripheral blood (plasma), mean: 5009.1 pg/mL
  MIP1a, peripheral blood (plasma), mean: 270.0 pg/mL
  MIP1b, peripheral blood (plasma), mean: 1009.6 pg/mL
  RANTES, peripheral blood (plasma), mean: 172.9 pg/mL
  TNFa, peripheral blood (plasma), mean: 29.6 pg/mL
[5]; [11]
  IFNg, peripheral blood (plasma), mean: 1236.8 pg/mL
  IL1b, peripheral blood (plasma), mean: 36.8 pg/mL
  IL-6, peripheral blood (plasma), mean: 14635.1 pg/mL
  IL-10, peripheral blood (plasma), mean: 62.8 pg/mL
  IL-12p70, peripheral blood (plasma), mean: 43.9 pg/mL
  IP10, peripheral blood (plasma), mean: >10000 pg/mL
  MCP-1, peripheral blood (plasma), mean: >10000 pg/mL
  MIP1a, peripheral blood (plasma), mean: 743.4 pg/mL
  MIP1b, peripheral blood (plasma), mean: 4517.1 pg/mL
  RANTES, peripheral blood (plasma), mean: 2533.7 pg/mL
  TNFa, peripheral blood (plasma), mean: 195.3 pg/mL
[4]; Renca tumor-bearing mice
  tolerability: less well tolerated
[4]; after the 2nd dose
  average weight loss: 6.2%

## CCn1nc(C)cc1C(=O)Nc1nc2cc(C(N)=O)cc(OC)c2n1C/C=C/Cn1c(NC(=O)c2cc(C)nn2C)nc2cc(C(N)=O)cc(OCCC3CN(C(=O)CCN4C(=O)C=CC4=O)C3)c21 [compound 149, (E)-1-(4-(5-carbamoyl-2-(1,3-dimethyl-1H-pyrazole-5-carboxamido)-7-(2-(1-(3-(2,5-dioxo-2,5-dihydro-1H-pyrrol-1-yl)propanoyl)azetidin-3-yl)ethoxy)-1H-benzo[d]imidazol-1-yl)but-2-en-1-yl)-2-(1-ethyl-3-methyl-1H-pyrazole-5-carboxamido)-7-methoxy-1H-benzo[d]imidazole-5-carboxamide]
[1]; ADC: drug linker conjugated to targeted mAb, 48 h, some values average of multiple experiments
  EC50, Lucia reporter signal: >10,000 ng/mL
